The values below come from PMC8033486 (Frontiers in Pharmacology, 2021).

Data set [1] deals with SARS-CoV-2. The data set is described as follows: microbe, parasite or virus in culture. Format: cell-based. To be noted: for Inhibition of SARS-CoV-2-induced cytopathic effect, result in words: Vero E6. Background: Damage to the host cells serves as the signal in cytopathic effect assays.
For data set [2], the system named is lentiviruses pseudotyped with SARS-CoV-2 Spike. The format is cell-based.
The next data set in a line: in vitro. To be noted: African green monkey.
Data set [3] deals with lentiviruses pseudotyped with SARS-CoV-2 Spike. The format is cell-based. This is another data set of the same source.
Data set [4] concerns SARS-CoV-2. The format is cell-based. The conditions noted are these: Vero E6, day 3 post-infection, non-toxic concentrations.
[5] abbreviates: CC50, Vero E6, no virus, 3 days.
Setting [6] is: Severe acute respiratory syndrome coronavirus 2, Vero C1008, 72 h, read-out: IC50 (Mean +/- SD).
Setting [7] is: Vero E6, cytopathic effect 3 days after infection, repeated experiments.

Entries after “also recorded” stand apart in the source; their conditions may differ. Counter-ions that a name gives are not always drawn. Like-named read-outs stand apart in the source and are kept apart here. Where a SMILES comes first, the peptide text is derived from it. The star is where a group is joined. Cbz = O=C(OCc1ccccc1)* Some results are limits rather than exact numbers.

In the case of `CCOC(=O)c1c(CSc2ccccc2)n(C)c2cc(Br)c(O)c(CN(C)C)c12` [Arbidol HCl], in the data set on SARS-CoV-2 [1], the “Inhibition of SARS-CoV-2-induced cytopathic effect, result in words” value (“Inhibition” for short) is on record as “failed to protected Vero E6 cells from SARS-CoV-2 induced cytopathic effect”. The “Block of SARS-CoV-2 Spike pseudovirus entry, result in words” value (“Block” for short) in data set [2] is “partial blocking effect”. The same molecule yielded a CC50 at 3 days in the data set “in vitro” (setting [5]) above 40 µM.

Turning to `CCN(CC)CCCC(C)Nc1ccnc2cc(Cl)ccc12` (centres unmarked) [Chloroquine], the IC50 amounted to 3.9 µM in the data set with SARS-CoV-2 [1] (setting [6]) and 3.86 µM in the data set on SARS-CoV-2 [1] (read-out: IC50 (Mean +/- SD)). The “Block” value in data set [3] was “reduced its inhibitory activity”.

In the data set with Vero E6 cells (Vero E6, no virus, 3 days), `CCOC(=O)[C@H]1O[C@@H]1C(=O)N[C@@H](CC(C)C)C(=O)NCCC(C)C` [E-64d] registered a CC50 above 100 µM. In the data set on SARS-CoV-2 [1], the “IC50 (Mean +/- SD)” value is “partialy active at 100” and the “Inhibition” value is “partial inhibitory activity”. The “Block” value in data set [2] was “active when TMPRSS2 is not present”.

Consider `Cl.Cl.O=C(O)COCCN1CCN(C(c2ccccc2)c2ccc(Cl)cc2)CC1` (centres unmarked) [Cetirizine dihydorcloride], for which the CC50 in the data set with Vero E6 cells is above 100 µM. For the same molecule, the “IC50 (Mean +/- SD)” value in the data set on SARS-CoV-2 [1] was “Not Active”.

As for `CCCCN1C[C@H](O)[C@@H](O)[C@H](O)[C@H]1CO` [NB-DNJ], in the data set with Vero E6 cells (Vero E6, no virus, 3 days), the CC50 is above 100 µM. In the data set with SARS-CoV-2 [1], the “IC50 (Mean +/- SD)” value is given as “active at 100” and the “Inhibition” value is listed as “decreased SARS-CoV-2 cytopathic effect”. Besides, the “Block” value in data set [2] is reported as “failed to block viral entry”.

On to `COC(=O)N[C@H](C(=O)N[C@@H](Cc1ccccc1)[C@@H](O)CN(Cc1ccc(-c2ccccn2)cc1)NC(=O)[C@@H](NC(=O)OC)C(C)(C)C)C(C)(C)C.O=S(=O)(O)O` [Atazanavir Sulfate], for which the CC50 with Vero E6 cells (Vero E6, no virus, 3 days) was above 20 µM. Moreover, the “IC50 (Mean +/- SD)” value in the data set on SARS-CoV-2 [1] is given as “Not Active”.

For the molecule `CC(C)C(=O)OCC(=O)[C@@]12O[C@H](C3CCCCC3)O[C@@H]1C[C@H]1[C@@H]3CCC4=CC(=O)C=C[C@]4(C)[C@H]3[C@@H](O)C[C@@]12C` [Ciclesonide], the “Inhibition” value in the data set on SARS-CoV-2 [1] was “failed to protected Vero E6 cells from SARS-CoV-2 induced cytopathic effect”. The “Block” value in data set [2] is “partial blocking effect”. For the same molecule, in “in vitro” (CC50), the CC50 at 3 days was above 20 µM.

As for `CN(C)C(=O)COC(=O)Cc1ccc(OC(=O)c2ccc(NC(=N)N)cc2)cc1` [Camostat], in the data set with SARS-CoV-2 [1], the “Inhibition” value is reported as “no antiviral effect on Vero E6 cells”. Also, the “Block” value in data set [2] is “failed to inhibit viral fusion; also recorded: displays no activity”; in data set [3], “activity was rescued”. In the data set “in vitro”, this molecule showed a CC50 above 100 µM.

In turn, `CCCNC(=O)[C@H]1O[C@@H]1C(=O)N[C@H](C(=O)N1CCC[C@H]1C(=O)OC)[C@@H](C)CC` [CA-074-Me] displayed a CC50 with Vero E6 cells (Vero E6, no virus, 3 days) above 34 µM. Besides, in the data set with SARS-CoV-2 [1], the “IC50 (Mean +/- SD)” value is given as “Not Active” and the “Inhibition” value is reported as “could not be confirmed using the specific cathepsin B inhibitor CA-074-Me due to drug-associated toxicity”. Moreover, the “Block” value in data set [2] was “partial blocking effect”.

Turning to `CCN1CCN(Cc2ccc(Nc3ncc(F)c(-c4cc(F)c5nc(C)n(C(C)C)c5c4)n3)nc2)CC1` [Abenaciclib], in the data set with Vero E6 cells (Vero E6, no virus, 3 days), the CC50 was above 1 µM.

Consider `CC(C)OC(=O)C(C)(C)Oc1ccc(C(=O)c2ccc(Cl)cc2)cc1` [Fenofibrate], for which the “Block” value in data set [2] is recorded as “viral entry was abrogated”. Also, in the data set with SARS-CoV-2 [4], the “SARS-CoV-2 release to the supernatant (nucleoprotein ELISA), result in words” value is recorded as “less active inhibiting viral release as compared to the rest of the inhibitors tested”. The molecule also gave a CC50 at 3 days in the data set “in vitro” above 100 µM.

Take `C[C@@H]1CCN(C(=O)CC#N)C[C@@H]1N(C)c1ncnc2[nH]ccc12` [Tofacitinib]: the “Inhibition” value in the data set with SARS-CoV-2 [1] is given as “failed to protected Vero E6 cells from SARS-CoV-2 induced cytopathic effect”. This molecule had a CC50 at 3 days in the data set “in vitro” (setting [5]) above 100 µM.

In the case of `Nc1nc(=O)n([C@@H]2CS[C@H](CO)O2)cc1F` [Emtricitabine], in the data set with SARS-CoV-2 [1], the “Inhibition” value is recorded as “failed to show any antiviral effect”. For the same molecule, in the data set on SARS-CoV-2 [1] (setting [7]), the “IC50 (Mean +/- SD)” value is given as “Not Active”. Also, in “in vitro” (setting [5]), the CC50 at 3 days was above 100 µM.

As to `CC(C)CN(C[C@@H](O)[C@H](Cc1ccccc1)NC(=O)O[C@H]1CCOC1)S(=O)(=O)c1ccc(N)cc1` [Amprenavir], in the data set with SARS-CoV-2 [1], the “Inhibition” value was “exhibited activity at the non-toxic concentration of 100 µM”. In addition, the CC50 at 3 days in “in vitro” (CC50) is above 100 µM.

On to Alpha-1 Antitrypsin, for which the CC50 in the data set on Vero E6 cells (Vero E6, no virus) was above 12.5 mg/mL. The “Inhibition” value in the data set on SARS-CoV-2 [1] is recorded as “exerted an effect but required high concentrations”. Moreover, the “IC50, result in words” value in the data set with SARS-CoV-2 [1] (Vero E6, cytopathic effect) is “active at 12.5”.

As to `NC(N)=Nc1nc(CSCCC(N)=NS(N)(=O)=O)cs1` [Famotidine], the “IC50 (Mean +/- SD)” value in the data set with SARS-CoV-2 [1] (setting [7]) is on record as “Not Active”. For the same molecule, the CC50 at 3 days in “in vitro” (setting [5]) was above 100 µM.

For `CC(C)[C@H](NC(=O)OCc1ccccc1)C(=O)N[C@H](C=O)Cc1ccccc1` [MDL 28170] (Cbz-Val-Phe-aldehyde), the IC50 was found to be 0.14 µM with SARS-CoV-2 [1] (setting [6]) and 0.2 µM in the data set on SARS-CoV-2 [1] (Severe acute respiratory syndrome coronavirus 2, Vero C1008, read-out: IC50 value of the particular graph, Vero E6, one representative experiment with two replicates, when combined, each drug at the same concentration). Further, the “Inhibition” value in the data set on SARS-CoV-2 [1] was “activity in the nanomolar range”. This molecule also registered a CC50 in the data set “in vitro” above 87 µM.

B1: interferon-γ (protein, UniProt P01579 24-161, looked up)
Interferon gamma: QDPYVKEAENLKKYFNAGHSDVADNGTLFLGILKNWKEESDRKIMQSQIVSFYFKLFKNFKDDQSIQKSVETIKEDMNVKFFNSNKKKRDDFEKLTNYSVTDLNVQRKAIHELIQVMAELSPAAKTGKRKRSQMLFRG
As to B1, the CC50 in the data set on Vero E6 cells (interferons, Vero E6, no virus, 3 days) is given as > 100 × 10^2 IU/mL.
